Laboratory results reported in ChEMBL document CHEMBL5321270, “Discovery of Pyrazolone Carbothioamide Derivatives as Inhibitors of the Pdr1-KIX Interaction for Combinational Treatment of Azole-Resistant Candidiasis” (J Med Chem, 2023).
≈ marks a conversion by molar mass, not a printed value. Calls of active or inactive are those of the source. The calls are words filed in the database; no cut-off is given here.

Assays:
[1] = system: Aspergillus fumigatus; test: Antifungal activity against Aspergillus fumigatus 7544 assessed as fungal growth inhibition incubated for 48 hrs by microplate reader assay; format: functional
[2] = system: Nakaseomyces glabratus; test: Synergistic antifungal activity against fluconazole-resistant Candida glabrata 0161 assessed as inhibition of fungal growth at 2 to 16 ug/ml incubated for 48 hrs in presence of fluconazole by Spot plating assay; format: functional, organism-based; details: dose 2-16 µg/ml
[3] = Clearance in ICR mouse at 2 mg/kg,iv measured upto 24 hrs by LC-MS/MS analysis; format: ADME, organism-based; details: in vivo
[4] = system: [Candida] auris; test: Antifungal activity against Candida auris 0030 assessed as fungal growth inhibition incubated for 48 hrs by microplate reader assay; format: functional; details: Candidozyma auris
[5] = Volume of distribution at steady state in ICR mouse at 2 mg/kg,iv measured upto 24 hrs by LC-MS/MS analysis; format: ADME, organism-based; details: in vivo, read-out: Vdss
[6] = system: Nannizzia gypsea; test: Antifungal activity against Microsporum gypseum assessed as fungal growth inhibition incubated for 48 hrs by microplate reader assay; format: functional
[7] = system: Nakaseomyces glabratus; test: Antifungal activity against fluconazole-resistant Candida glabrata 0161 assessed as fractional inhibitory concentration incubated for 48 hrs in presence of fluconazole by microplate reader assay; format: functional
[8] = Cmax in ICR mouse at 10 mg/kg,po measured upto 24 hrs by LC-MS/MS analysis; format: ADME, organism-based; set-up: dose 10 mg/kg, time < 24 hrs, route po; details: in vivo
[9] = AUC (0-infinity) in ICR mouse at 2 mg/kg,iv measured upto 24 hrs by LC-MS/MS analysis; format: ADME, organism-based; set-up: dose 2 mg/kg, time < 24 hrs, route iv; details: in vivo
[10] = Tmax in ICR mouse at 10 mg/kg,po measured upto 24 hrs by LC-MS/MS analysis; format: ADME, organism-based; details: in vivo
[11] = system: Nakaseomyces glabratus; test: Antifungal activity against fluconazole-resistant Candida glabrata 0161 assessed as fluconazole fractional inhibitory concentration incubated for 48 hrs in presence of fluconazole by microplate reader assay; format: functional
[12] = Tmax in ICR mouse at 2 mg/kg,iv measured upto 24 hrs by LC-MS/MS analysis; format: ADME, organism-based; details: in vivo
[13] = system: Nakaseomyces glabratus; test: Antifungal activity against fluconazole-resistant Candida glabrata 9256 assessed as fungal growth inhibition incubated for 48 hrs by microplate reader assay; format: functional

With `Nc1cc(=O)n(C(=S)Nc2ccc3c(c2)CCC3)[nH]1` the MIC [1] was 16 µg/mL (≈ 58.3 µM), the Activity [2] was “Active” and the clearance [3] was 68.6 mL/min/kg. It also gave an MIC [4] of 2 µg/mL (≈ 7.29 µM), a Vd [5] of 1.04 L/kg and an MIC [6] of 1 µg/mL (≈ 3.64 µM). For the same compound, the FIC [7] was 0.063 µg/mL, the Cmax [8] was 875 ng/mL and the AUC(0-inf) [9] was 491 ng·h/mL. For the same compound, the Tmax [10] was 15 min, the “fluconazole MIC in combination” value [11] was 1 µg/mL and the Tmax [12] was 4.8 min. For the same compound, the MIC [13] was 0.25 µg/mL (≈ 0.911 µM).
